According to patent US7517872B2, “Compounds for the treatment of hepatitis C” (Bristol-Myers Squibb Company, priority 2007, dated 2009):
Read-outs that look alike come from different tables or passages of the source.

How the values were obtained:
[1] = biological target: T1, HCV NS5B RdRp genotype 1b (Hepatitis C virus genotype 1b, UniProt Q9WMX2); assay: Modified HCV NS5B RdRp enzyme assay (preincubation protocol); format: biochemical
T1 construct: The protein was expressed with an 18 amino acid C-terminal truncation to enhance the solubility; made in house; host or cells: E. coli BL21(DE3), pET21a vector
Description: HCV NS5B RdRp cloning, expression, and purification. The cDNA encoding the NS5B protein of HCV, genotype 1b, was cloned into the pET21a expression vector. The protein was expressed with an 18 amino acid C-terminal truncation to enhance the solubility. The E. coli competent cell line BL21(DE3) was used for expression of the protein. Cultures were grown at 37° C. for ˜4 hours until the cultures reached an optical density of 2.0 at 600 nm. The cultures were cooled to 20° C. and induced with 1 mM IPTG. Fresh ampicillin was added to a final concentration of 50 μg/ml and the cells were grown overnight at 20° C.
Cell pellets (3L) were lysed for purification to yield 15-24 mgs of purified NS5B. The lysis buffer consisted of 20 mM Tris-HCl, pH 7.4, 500 mM NaCl, 0.5% triton X-100, 1 mM DTT, 1 mM EDTA, 20% glycerol, 0.5 mg/ml lysozyme, 10 mM MgCl2, 15 ug/ml deoxyribonuclease I, and Complete TM protease inhibitor tablets (Roche). After addition of the lysis buffer, frozen cell pellets were resuspended using a tissue homogenizer. To reduce the viscosity of the sample, aliquots of the lysate were sonicated on ice using a microtip attached to a Branson sonicator. The sonicated lysate was centrifuged at 100,000×g for 1 hr at 4° C. and filtered through a 0.2 μm filter unit (Corning).
The protein was purified using three sequential chromatography steps: Heparin sepharose CL-6B, polyU sepharose 4B, and Hitrap SP sepharose (Pharmacia). The chromatography buffers were identical to the lysis buffer but contained no lysozyme, deoxyribonuclease I, MgCl2 or protease inhibitor and the NaCl concentration of the buffer was adjusted according to the requirements for charging the protein onto the column. Each column was eluted with a NaCl gradient which varied in length from 5-50 column volumes depending on the column type. After the final chromatography step, the resulting purity of the enzyme is >90% based on SDS-PAGE analysis. The enzyme was aliquoted and stored at −80° C.
Standard HCV NS5B RdRp enzyme assay. HCV RdRp genotype 1b assays were run in a final volume of 60 μl in 96 well plates (Costar 3912). The assay buffer is composed of 20 mM Hepes, pH 7.5, 2.5 mM KCl, 2.5 mM MgCl2, 1 mM DTT, 1.6 U RNAse inhibitor (Promega N2515), 0.1 mg/ml BSA (Promega R3961), and 2% glycerol. All compounds were serially diluted (3-fold) in DMSO and diluted further in water such that the final concentration of DMSO in the assay was 2%. HCV RdRp genotype 1b enzyme was used at a final concentration of 28 nM. A polyA template was used at 6 nM, and a biotinylated oligo-dT12 primer was used at 180 nM final concentration. Template was obtained commercially (Amersham 27-4110). Biotinylated primer was prepared by Sigma Genosys. 3H-UTP was used at 0.6 μCi (0.29 μM total UTP). Reactions were initiated by the addition of enzyme, incubated at 30° C. for 60 min, and stopped by adding 25 μl of 50 mM EDTA containing SPA beads (4 μg/μl, Amersham RPNQ 0007). Plates were read on a Packard Top Count NXT after >1 hr incubation at room temperature.
Modified HCV NS5B RdRp enzyme assay. A modified enzyme assay was performed essentially as described for the standard enzyme assay except for the following: The biotinylated oligo dT12 primer was precaptured on streptavidin-coated SPA beads by mixing primer and beads in assay buffer and incubating at room temperature for one hour. Unbound primer was removed after centrifugation. The primer-bound beads were resuspended in 20 mM Hepes buffer, pH 7.5 and used in the assay at final concentrations of 20 nM primer and 0.67 μg/μl beads. Order of addition in the assay: enzyme (14 nM) was added to diluted compound followed by the addition of a mixture of template (0.2 nM), 3H-UTP (0.6 μCi, 0.29 μM), and primer-bound beads, to initiate the reaction; concentrations given are final. Reactions were allowed to proceed for 4 hours at 30° C.
IC50 values for compounds were determined using seven different [I]. […]

HCV replicon cells = assay: HCV replicon FRET assay; format: cell-based; details: Hepatitis C virus
Excerpt: FRET Assay Preparation. To perform the HCV FRET screening assay, 96-well cell culture plates were used. The FRET peptide (Anaspec, Inc.) (Taliani et al., Anal. Biochem. 1996, 240, 60-67) contains a fluorescence donor, EDANS, near one end of the peptide and an acceptor, DABCYL, near the other end. The fluorescence of the peptide is quenched by […] resonance energy transfer (RET) between the donor and the acceptor, but as the NS3 protease cleaves the peptide the products are released from RET quenching and the fluorescence of the donor becomes apparent. The assay reagent was made as follows: 5× cell Luciferase cell culture lysis reagent from Promega (#E153A) diluted to 1× with dH2O, NaCl added to 150 mM final, the FRET peptide diluted to 20 μM final from a 2 mM stock.
To prepare plates, HCV replicon cells, with or without a Renilla luciferase reporter gene, were trypsinized and placed into each well of a 96-well plate with titrated test compounds added in columns 3 through 12; columns 1 and 2 contained a control compound (HCV protease inhibitor), and the bottom row contained cells without compound. The plates were then placed in a CO2 incubator at 37° C.
Assays. Subsequent to addition of the test compounds described above (FRET Assay Preparation), at various times the plate was removed and Alamar blue solution (Trek Diagnostics, #00-100) was added per well as a measure of cellular toxicity. After reading in a Cytoflour 4000 instrument (PE Biosystems), plates were rinsed with PBS and then used for FRET assay by the addition of 30 ul of the FRET peptide assay reagent described above (FRET Assay Preparation) per well. The plate was then placed into the Cytoflour 4000 instrument which had been set to 340 excite/490 emission, automatic mode for 20 cycles and the plate read in a kinetic mode. Typically, the signal to noise using an endpoint analysis after the reads was at least three-fold. Alternatively, after Alamar blue reading, plates were rinsed with PBS, 50 ul of DMEM (high glucose) without phenol red was added and plates were then used for luciferase assay using the Promega Dual-Glo Luciferase Assay System.
Compound analysis was determined by quantification of the relative HCV replicon inhibition and the relative cytotoxicity values. To calculate cytoxicity values, the average Alamar Blue fluorescence signals from the control wells were set as 100% non-toxic. The individual signals in each of the compound test wells were then divided by the average control signal and multiplied by 100% to determine […]. To calculate the HCV replicon inhibition values, an average background value was obtained from the two wells containing the highest amount of HCV protease inhibitor at the end of the assay period. These numbers were similar to those obtained from naive Huh-7 cells.
The background numbers were then subtracted from the average signal obtained from the control wells and this number was used as 100% activity. The individual signals in each of the compound test wells were then divided by the averaged control values after background subtraction and multiplied by 100% to determine percent activity. EC50 values for a protease inhibitor titration were calculated as the concentration which caused a 50% reduction in FRET or luciferase activity. The two numbers generated for the compound plate, percent cytoxicity and percent activity were used to determine compounds of interest for further analysis.

[2] = HCV NS5B RdRp genotype 1b, preincubation protocol, read-out: IC50
[3] = HCV replicon cells, FRET assay, read-out: EC50

T1 sequence (Q9WMX2 2420-2992): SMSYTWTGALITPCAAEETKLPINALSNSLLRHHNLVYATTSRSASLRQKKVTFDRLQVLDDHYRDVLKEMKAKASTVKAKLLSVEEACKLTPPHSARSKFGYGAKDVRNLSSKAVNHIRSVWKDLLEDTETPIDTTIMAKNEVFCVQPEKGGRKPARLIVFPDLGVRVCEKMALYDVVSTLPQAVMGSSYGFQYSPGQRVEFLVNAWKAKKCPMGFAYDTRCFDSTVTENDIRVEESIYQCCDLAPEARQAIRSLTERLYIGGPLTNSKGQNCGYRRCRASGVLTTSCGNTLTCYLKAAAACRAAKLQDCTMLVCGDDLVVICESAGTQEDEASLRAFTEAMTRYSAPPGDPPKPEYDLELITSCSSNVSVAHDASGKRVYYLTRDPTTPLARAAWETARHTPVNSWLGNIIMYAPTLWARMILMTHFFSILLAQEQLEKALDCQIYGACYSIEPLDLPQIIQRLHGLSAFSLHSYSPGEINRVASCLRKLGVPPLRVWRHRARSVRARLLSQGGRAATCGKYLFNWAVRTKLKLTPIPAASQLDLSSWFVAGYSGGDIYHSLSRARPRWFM

| SMILES | IC50 [1, 2] [nM] | EC50 (HCV replicon cells; [3]) [nM] | IC50 [1] [nM] | EC50 (HCV replicon cells) [nM] |
| --- | --- | --- | --- | --- |
| COc1ccc2c(c1)C=C(C(=O)N1C[C@@H](C)O[C@@H](C)C1)Cn1c-2c(C2CCCCC2)c2ccc(C(=O)NS(=O)(=O)N(C)C)nc21 | 1 to 500 | > 500 | – | – |
| COc1ccc2c(c1)C=C(C(=O)N1C[C@@H](C)N(C)[C@@H](C)C1)Cn1c-2c(C2CCCCC2)c2ccc(C(=O)NS(=O)(=O)N(C)C)nc21 | 1 to 500 | 1 to 500 | – | – |
| COc1ccc2c(c1)[C@@H]1C[C@]1(C(=O)N1[C@@H]3CC[C@H]1CN(C)C3)Cn1c-2c(C2CCCCC2)c2ccc(C(=O)NS(=O)(=O)N(C)C)nc21 | – | – | 1 to 500 | > 100 |
| COc1ccc2c(c1)C=C(C(=O)N1C[C@@H](C)O[C@@H](C)C1)Cn1c-2c(C2CCCCC2)c2cccnc21 | 500 to 10000 | > 370 | – | – |
| COC(=O)C1=Cc2cc(OC)ccc2-c2c(C3CCCCC3)c3ccc(C(=O)NS(=O)(=O)N(C)C)nc3n2C1 | 1 to 500 | 500 to 10000 | – | – |
| CNS(=O)(=O)NC(=O)c1ccc2c(C3CCCCC3)c3n(c2n1)CC(C(=O)N1C[C@@H](C)O[C@@H](C)C1)=Cc1cc(OC)ccc1-3 | 1 to 500 | 500 to 10000 | – | – |
| COc1ccc2c(c1)[C@@H]1C[C@]1(C(=O)N1[C@@H]3CC[C@H]1CN(C)C3)Cn1c-2c(C2CCCCC2)c2ccc(C(=O)N(C)S(=O)(=O)N(C)C)nc21 | – | – | 500 to 10000 | > 100 |
